We go through 48 molecules from patent US6686469B2, “Pesticidal pyrimidine-derivatives” (Novartis Animal Health US, Inc., priority 1999, dated 2004).

A value given as a limit tells only on which side of the number the result lay.

The first series deals with Heliothis virescens. As to the kind of experiment: Activity against Heliothis virescens. The series is classed as in vivo. Particulars: young soya plants sprayed with 100 ppm active ingredient, first-stage caterpillars, 6 days later. On the procedure: Young soya plants are sprayed with an aqueous emulsion spray mixture containing 100 ppm of active ingredient, when the spray coating has dried on they are colonised with 10 caterpillars of the first stage of Heliothis virescens and then placed in a plastic container. The percentage reduction of the population and of the feeding damage (% response) is determined 6 days later by comparing the total number of dead caterpillars and the feeding damage on the treated plants with those on the untreated plants.
For the molecule `Fc1cccc(Cl)c1-c1ncc(-c2ccc(-c3ccc(C(F)(F)F)cc3)cc2)cn1` [Compound 1.17], the “efficacy: percentage reduction of the population and of the feeding damage (% response)” value is given as “over 80%”.

System in the next series: not given
Experiment: not given
Conditions: not given
Molecule `Fc1cccc(F)c1-c1ncc(-c2ccc(-c3ccc(C(F)(F)F)cc3)cc2)cn1` [Compound 1.2] yielded a melting point of 252 to 254 °C.
`FC(F)(F)c1ccc(-c2ccc(-c3cnc(-c4c(Cl)cccc4Cl)nc3)cc2)cc1` [Compound 1.3] gave a melting point of 207 to 208 °C.
The same measure, in the same setting: the figure for `FC(F)(F)Oc1ccc(-c2ccc(-c3cnc(-c4c(Cl)cccc4Cl)nc3)cc2)cc1` [Compound 1.4] is 179 to 181 °C.
Still for that read-out and setting: to `Clc1ccc(-c2ccc(-c3cnc(-c4c(Cl)cccc4Cl)nc3)cc2)cc1Cl` [Compound 1.6] belongs 224 to 226 °C; to `COc1ccc(-c2ccc(-c3cnc(-c4c(Cl)cccc4Cl)nc3)cc2)cc1` [Compound 1.7], 242 to 244 °C.
The molecule `Clc1ccc(-c2ccc(-c3cnc(-c4c(Cl)cccc4Cl)nc3)cc2)cc1` [Compound 1.8] showed a melting point of 205 to 220 °C.
As for `Clc1cc(Cl)cc(-c2ccc(-c3cnc(-c4c(Cl)cccc4Cl)nc3)cc2)c1` [Compound 1.9], the melting point is > 220 °C.
On the same count and under the same terms, to `CC(C)(C)c1ccc(-c2ccc(-c3cnc(-c4c(Cl)cccc4Cl)nc3)cc2)cc1` [Compound 1.10] belongs 200 to 202 °C.
Still for that read-out and setting: the figure for `Fc1ccc(-c2ccc(-c3cnc(-c4c(F)cccc4Cl)nc3)cc2)cc1Cl` [Compound 1.11] is 186 to 189 °C.
Take `Fc1cccc(Cl)c1-c1ncc(-c2ccc(-c3ccc(OC(F)(F)F)cc3)cc2)cn1` [Compound 1.12]: the melting point was 160 to 163 °C.
`Fc1cccc(Cl)c1-c1ncc(-c2ccc(-c3ccc(Cl)c(Cl)c3)cc2)cn1` [Compound 1.13] had a melting point of 196 to 199 °C.
On the same count and under the same terms, the figure for `Fc1cccc(Cl)c1-c1ncc(-c2ccc(-c3cccc(C(F)(F)F)c3)cc2)cn1` [Compound 1.14] is 187 to 190 °C; for `COc1ccc(-c2ccc(-c3cnc(-c4c(F)cccc4Cl)nc3)cc2)cc1` [Compound 1.15] it is 176 to 179 °C; for `Fc1cccc(F)c1-c1ncc(-c2ccc(-c3cccc(C(F)(F)F)c3)cc2)cn1` [Compound 1.18] it is 217 to 218 °C.
The same measure, in the same setting: the figure for `Fc1cccc(F)c1-c1ncc(-c2ccc(-c3ccc(OC(F)(F)F)cc3)cc2)cn1` [Compound 1.19, 2-(2,6-difluorophenyl)-5-(4′-trifluoromethoxybiphenyl-4-yl)-pyrimidine] is 215 to 216 °C.
In the case of `COc1ccccc1-c1ccc(-c2cnc(-c3c(F)cccc3F)nc2)cc1` [Compound 1.20], the melting point lay in the range of 150 to 151 °C.
As for `Fc1cccc(F)c1-c1ncc(-c2ccc(-c3ccc(-c4ccccc4)cc3)cc2)cn1` [Compound 1.22], the melting point is > 260 °C.
Regarding `Fc1ccc(-c2ccc(-c3cnc(-c4c(F)cccc4F)nc3)cc2)cc1` [Compound 1.23], the melting point lay in the range of 212 to 213 °C.
For `Fc1cccc(F)c1-c1ncc(-c2ccc(-c3ccccc3C(F)(F)F)cc2)cn1` [Compound 1.24], the melting point was 100 to 102 °C.
The molecule `Fc1cccc(F)c1-c1ncc(-c2ccc(-c3ccc(Cl)cc3)cc2)cn1` [Compound 1.25] displayed a melting point of 220 to 222 °C.
The same measure, in the same setting: the figure for `Fc1cccc(F)c1-c1ncc(-c2ccc(-c3cccc(Cl)c3)cc2)cn1` [Compound 1.37] is 178 to 179 °C.
As to `CCOc1nc(-c2c(F)cccc2F)ncc1-c1ccc(-c2ccc(OC(F)(F)F)cc2)cc1` [Compound 1.58], the melting point is 146 to 147 °C.
Still for that read-out and setting: to `CCOc1nc(-c2c(F)cccc2F)ncc1-c1ccc(-c2ccc(C(F)(F)F)cc2)cc1` [Compound 1.59] belongs 170 to 172 °C; to `CCOc1nc(-c2c(F)cccc2F)ncc1-c1ccc(-c2cc(Cl)cc(Cl)c2)cc1` [Compound 1.60], 154 to 155 °C; to `CCNc1nc(-c2c(F)cccc2F)ncc1-c1ccc(-c2ccc(C(F)(F)F)cc2)cc1` [Compound 1.67], 189 to 190 °C.
Regarding `CCNc1nc(-c2c(F)cccc2F)ncc1-c1ccc(-c2cc(Cl)cc(Cl)c2)cc1` [Compound 1.68], the melting point was 202 to 203 °C.
Still for that read-out and setting: the figure for `CN(C)c1nc(-c2c(F)cccc2F)ncc1-c1ccc(-c2ccc(OC(F)(F)F)cc2)cc1` [Compound 1.69] is 146 to 147 °C.
Molecule `CN(C)c1nc(-c2c(F)cccc2F)ncc1-c1ccc(-c2ccc(C(F)(F)F)cc2)cc1` [Compound 1.70] showed a melting point of 166 to 168 °C.
On to `CN(C)c1nc(-c2c(F)cccc2F)ncc1-c1ccc(-c2cc(Cl)cc(Cl)c2)cc1` [Compound 1.71], for which the melting point fell in the range of 200 to 202 °C.
Still for that read-out and setting: to `CCSc1nc(-c2c(F)cccc2F)ncc1-c1ccc(-c2ccc(OC(F)(F)F)cc2)cc1` [Compound 1.72] belongs 127 to 128 °C; to `CCSc1nc(-c2c(F)cccc2F)ncc1-c1ccc(-c2ccc(C(F)(F)F)cc2)cc1` [Compound 1.73], 145 to 146 °C; to `CCSc1nc(-c2c(F)cccc2F)ncc1-c1ccc(-c2cc(Cl)cc(Cl)c2)cc1` [Compound 1.74], 154 to 156 °C.
Molecule `Fc1ccc(-c2ccc(-c3ccnc(-c4c(F)cccc4F)n3)cc2)cc1Cl` [Compound 2.1] returned a melting point of 133 to 134 °C.
As to `Fc1cccc(F)c1-c1nccc(-c2ccc(-c3ccc(C(F)(F)F)cc3)cc2)n1` [Compound 2.2, 2-(2,6-difluorophenyl)-4-(4′-trifluoromethylbiphenyl-4-yl)-pyrimidine], the melting point is 141 to 142 °C.
On the same count and under the same terms, the figure for `Fc1cccc(F)c1-c1nccc(-c2ccc(-c3ccc(OC(F)(F)F)cc3)cc2)n1` [Compound 2.3] is 102 to 103 °C; for `Fc1cccc(F)c1-c1nccc(-c2ccc(-c3cc(Cl)cc(Cl)c3)cc2)n1` [Compound 2.5] it is 116 to 126 °C.
Consider `Fc1cccc(F)c1-c1nccc(-c2ccc(-c3ccc(Cl)c(Cl)c3)cc2)n1` [Compound 2.6], for which the melting point was 134 to 140 °C.
On the same count and under the same terms, to `Fc1cccc(F)c1-c1nccc(-c2ccc(-c3ccc(-c4ccccc4)cc3)cc2)n1` [Compound 2.7] belongs 258 to 259 °C.
On the same count and under the same terms, to `Fc1ccc(-c2ccc(-c3ccnc(-c4c(F)cccc4F)n3)cc2)cc1` [Compound 2.8] belongs 145 to 146 °C; to `Fc1cccc(F)c1-c1nccc(-c2ccc(-c3ccc(Cl)cc3Cl)cc2)n1` [Compound 2.9], 86 to 87 °C.
As to `Fc1cccc(F)c1-c1nccc(-c2ccc(-c3cccc(Cl)c3)cc2)n1` [Compound 2.10], the melting point lay in the range of 82 to 83 °C.
`Fc1cccc(F)c1-c1nccc(-c2ccc(-c3ccc(Cl)cc3)cc2)n1` [Compound 2.11] registered a melting point of 167 to 168 °C.
`Fc1cccc(F)c1-c1nccc(-c2ccc(-c3ccccc3C(F)(F)F)cc2)n1` [Compound 2.12] displayed a melting point of 179 to 180 °C.
The molecule `Fc1cccc(F)c1C1N=CC=C(c2ccc(Br)cc2)N1Cl` (stereo not drawn) [Compound 3.354, 4-(4-bromophenyl)-2-(2,6-difluorophenyl)-3-chloropyrimidine] registered a melting point of 146 to 148 °C.
On the same count and under the same terms, to `N#CN1C(c2ccc(Br)cc2)=CC=NC1c1c(F)cccc1F` (stereo not drawn) [Compound 3.355, 4-(4-bromophenyl)-3-cyano-2-(2,6-difluorophenyl)-pyrimidine] belongs 146 to 148 °C; to `Fc1cccc(F)c1-c1ncc(-c2ccc(Br)cc2)cn1` [Compound P1.3, 5-(4-bromophenyl)-2-(2,6-difluorophenyl)-pyrimidine], 193 to 194 °C.
For `Fc1cccc(F)c1-c1nccc(-c2ccc(Br)cc2)n1` [Compound P1.5, 4-(4-bromophenyl)-2-(2,6-difluorophenyl)-pyrimidine], the melting point is 130 to 131 °C.
